Laboratory results published in patent US8962691B2, “Retinoid replacements and opsin agonists and methods for the use thereof” (University of Washington, priority 2003, dated 2015).

Legend:
Rpe65−/− mice [1] = test: Analyses of retinoids and visual pigments in eyes of Rpe65−/− mice given 9-cis-retinal; type: in vivo, mouse
Description: All of the procedures were performed under dim red light as described previously (Van Hooser et al., Proc. Natl. Acad. Sci. USA 97:8623-28 (2000); Jang et al., J. Biol. Chem. 276:32456-65 (2001); Palczewski et al., Biochemistry 38:12012-19 (1999)). In addition to previously described methods, retinoid analysis was performed on an HP 1100 series high pressure liquid chromatograph (HPLC) equipped with a diode array detector and HP Chemstation A.07.01 software, allowing identification of retinoid isomers according to their specific retention time and absorption maxima. A normal phase column (Beckman Ultrasphere Si 5μ, 4.6×250 mm) and an isocratic solvent system of 0.5% ethyl acetate in hexane (v/v) for 15 minutes followed by 4% ethyl acetate in hexane for 60 minutes at a flow rate of 1.4 ml/minute at 20° C. (total 75 min) with detection at 325 nm allowed the separation of 11-cis-, 13-cis-, and all-trans-retinyl esters. In addition, all of the study procedures related to the analysis of dissected mouse eyes, derivatization, and separation of retinoids have been described previously in detail (Van Hooser et al., Proc. Natl. Acad. Sci. USA 97:8623-28 (2000)). Rhodopsin and iso-rhodopsin measurements were performed as described previously (Palczewski et al., Biochemistry 38:12012-19 (1999)). Typically, two mouse eyes were used per assay, and the assays were repeated three to six times. The data are presented with S.E.M.
Oral gavage was carried out as described previously (Van Hooser et al., Proc. Natl. Acad. Sci. USA 97:8623-28 (2000)).
The chemicals were purchased from Sigma/Aldrich unless otherwise specified. Solution A contained 10 mg of 9-cis-retinal, 75 mg of Cremophor EL, 1 mg of α-tocopherol, and 0.6 mg of benzoic acid suspended in 1 ml of lactated Ringer's solution (Baxter). The mixture was vortexed for 10 minutes and centrifuged for 10 minutes at 20,000×g, and the concentration of 9-cis-retinal (7.7 mM) was determined spectrophotometrically. Solution B contained 13 mg of 9-cis-retinal, 50 mg of Cremophor EL, 10 mg of dipalmitoylphosphatidyl choline, and 40 mg of 2-hydroxypropyl-β-cyclodextrin suspended in 1 ml of lactated Ringer's solution (Baxter). The mixture was vortexed for 10 minutes and centrifuged for 10 minutes at 20,000×g, and the concentration of 9-cis-retinal (10 mM) was determined spectrophotometrically. Solutions A and B (typically, 100 μl) were delivered to the mouse lateral tail vein employing a 1-ml syringe equipped with a 27-gauge needle and a restraint tube.

Rpe65−/− mice [2] = test: Mouse flicker electroretinograms; type: in vivo
Description: Mice were dark-reared from birth and anesthetized (ketaject/xylaject, 65 mg/kg intraperitoneally), and the pupils were dilated with tropicamide (1%). […] The mice were placed in a Ganzfield chamber, and flicker recordings were obtained from one eye.

## CC1=C(/C=C/C(C)=C\C=C\C(C)=C\C=O)C(C)(C)CCC1 [9-cis-retinal]
Rpe65−/− mice [1]; 0.25 mg
  axial density of iso-rhodopsin as share of rhodopsin in Rpe65+/+ rods: 16%
  free opsin as share of total available pigment: 72%
Rpe65−/− mice [1]; 1.25 mg
  axial density of iso-rhodopsin as share of rhodopsin in Rpe65+/+ rods: 21%
  free opsin as share of total available pigment: 63%
Rpe65−/− mice [1]; 2.5 mg
  amount of iso-rhodopsin: 300 pmol
  free opsin in rods: no free opsin
  iso-rhodopsin as share of rhodopsin in Rpe65+/+ rods: about 57%
  number of iso-rhodopsin molecules in rods: about 1.2×10^7
Rpe65−/− mice [1]; 2.5 mg dose gavage
  iso-rhodopsin formed: 300±25 pmol of iso-rhodopsin/eye
Rpe65−/− mice [1]; 2.5 mg, after 48 hour more than three intense flashes at 1-hour intervals
  iso-rhodopsin and 9-cis-retinyl esters after flashes: significantly depleted
Rpe65−/− mice [1]; 2.5 mg, five flashes at 24-hour intervals
  retinyl esters from liver and RPE after flashes: completely depleted
Rpe65−/− mice [1]; 0.25-mg dose every other day from PND 7 until 30 days old
  all-trans-retinyl ester accumulation: dramatic change in the ester accumulation
Rpe65−/− mice [1]; 0.25-mg dose gavage
  iso-rhodopsin formed: 85.6±6.2 pmol/eye
Rpe65−/− mice [1]; 1.25-mg dose gavage
  iso-rhodopsin formed: 109.8 pmol of iso-rhodopsin/eye
Rpe65−/− mice [1]; 6-month-old (FIG. 2B) compared with FIG. 2A
  decrease of iso-rhodopsin with age: 50%
Rpe65−/− mice [1]; 6 month-old Rpe65−/− mice treated twice, 2.5 mg/dose
  reduction of ester levels compared with untreated animals: > 50%
Rpe65−/− mice [1]; 6 month-old mice, 2.5 mg/dose twice at PND 30 and 34, 30 and 120, or 30 and 150
  iso-rhodopsin levels between dosing regimens: comparable
Rpe65−/− mice [1]; 48 hours after treatment
  pigment deficit of Rpe65−/− rods relative to Rpe65+/+: approximately 40%
Rpe65−/− mice [1]; Rpe65−/− mice in the dark
  time rod photopigment is produced and maintained: more than 6 months
Rpe65−/− mice [1]; continued administration of 1 dose (1.25 mg) per week after early treatment
  overall amounts of all-trans-retinyl esters: dramatically suppressed
Rpe65−/− mice [1]; intravenous injection, addition of cyclodextrin
  accumulation of 9-cis-retinyl esters in the liver or RPE: higher accumulation
Rpe65−/− mice [1]; intravenous injection, with and without cyclodextrins
  iso-rhodopsin production: produced iso-rhodopsin
Rpe65−/− mice [1]; single 2.5 mg dose at 1 month, 12-hour light/dark cycle or 24 hour dark for 37 days
  depletion of retinal (iso-rhodopsin level): No appreciable depletion of retinal
Rpe65−/− mice [1]; treatment began after more than 1 month of age
  removal of accumulated esters in the RPE: not removed
Rpe65−/− mice [2]; early intervention, Rpe65−/− mice
  time rod retinal function is supported post-treatment: more than 6 months
Rpe65−/− mice [2]; eight weeks after single 2.5 mg
  gain in ERG sensitivity over untreated mice: 2.1 logarithmic units
Rpe65−/− mice [2]; eight weeks after single 2.5 mg, at 0.059 cd·s/m^2
  flicker ERG peak amplitude: 137.3±24.4 μV
Rpe65−/− mice [2]; eight weeks after single 2.5 mg, at 13 cd·s/m^2
  flicker ERG peak amplitude: 40.0±7.1 μV
Rpe65−/− mice [2]; treated once at PND 30
  persistence of partial recovery of ERG sensitivity: more than 12 weeks
